Holding throughout (assay type): cell-based
The target of experiment [1] is AXL (Homo sapiens (Human), UniProt P30530). The experiment in a line: AXL autophosphorylation ELISA in A-172 cells. Conditions: cellular, Gas6-stimulated, phospho-AXL ELISA. How it is done:
A-172 glioblastoma cells (ATCC #CRL-1620) were seeded at 2.5×10^5 cells/well onto 24-well plates (Greiner #662165), in DMEM (Thermo Fisher #11995-040) containing 10% FBS (Thermo Fisher #26140-079), 1% MEM NEAA (Thermo Fisher #11140-050), 1% GlutaMax (Thermo Fisher #35050-061), and 1% Penicillin Streptomycin (Thermo Fisher #15140-122). A-172 cells were incubated at 37° C., 5% CO2 for 24 h and then starved for 24 h in serum-free medium. Test compounds were serially diluted to produce an 8-point dose curve in fresh serum-free medium to a final concentration of 0.3% DMSO (vehicle) and added to the cells and incubated for 1 h. Cells were then stimulated with 1 μg/mL recombinant human Gas6 (R&D Systems #885-GSB-500) for 15 min, washed with cold PBS, and immediately lysed with 150 μL of cold IX lysis buffer [20 mM Tris, 137 mM sodium chloride, 2 mM EDTA, 10% glycerol, 1% NP-40 alternative, 1 mM activated sodium orthovanadate, 1 mM PefaBloc SC (Sigma-Aldrich #11429868001), protease/phosphatase inhibitor tablet (Thermo Fisher #A32959)]. Lysates were collected and 100 μL/well added into the human phospho-AXL Duo Set IC ELISA (R&D Systems #DYC2228-2). Assay was performed according to manufacturer's instructions and sample phospho-AXL concentrations were extrapolated using human phospho-AXL control (R&D Systems #841645) as a standard. Positive control wells (100% activity) contained Gas6-stimulated, DMSO-treated cell lysates. Negative control wells (0% activity) contained Gas6-stimulated, reference inhibitor-treated cell lysates. IC50 values were calculated by nonlinear regression analysis using a 4-parameter logistic curve fit in ActivityBase XL (IDBS).
A general note: In an ELISA, binding on a coated surface is turned into a signal by an enzyme label.

In experiment [2] the target is Met (Homo sapiens (Human), UniProt P08581). The experiment in a line: Met autophosphorylation ELISA in PC-3 cells. Conditions: cellular, HGF-stimulated, phospho-Met ELISA, read-out: c-Met IC50. Here is the method:
PC-3 prostate cancer cells (ATCC #CRL-1435) were seeded at 4×10^4 cells/well onto 24-well plates (Greiner #662165), in DMEM (Thermo Fisher #11995-040) containing 10% FBS (Thermo Fisher #26140-079), 1% MEM NEAA (Thermo Fisher #11140-050), 1% GlutaMax (Thermo Fisher #35050-061), and 1% Penicillin Streptomycin (Thermo Fisher #15140-122). PC-3 cells were incubated at 37° C., 5% CO2 for 24 h and then starved for 3 h in serum-free medium. Test compounds were serially diluted to produce an 8-point dose curve in fresh serum-free medium to a final concentration of 0.3% DMSO (vehicle) and added to the cells and incubated for 1 h. Cells were then stimulated with 100 ng/mL recombinant human HGF (R&D Systems #294-HG-250) for 10 min, washed with cold PBS, and immediately lysed with 130 μL of cold IX lysis buffer [20 mM Tris, 137 mM sodium chloride, 2 mM EDTA, 10% glycerol, 1% NP-40 alternative, 1 mM activated sodium orthovanadate, 1 mM PefaBloc SC (Sigma-Aldrich #11429868001), protease/phosphatase inhibitor tablet (Thermo Fisher #A32959)]. Lysates were clarified by centrifugation and 100 μL/well added into the PathScan phospho-Met (panTyr) Sandwich ELISA (Cell Signaling Technology #7333). Assay was performed according to manufacturer's instructions. Positive control wells (100% activity) contained HGF-stimulated, DMSO-treated cell lysates. Negative control wells (0% activity) contained HGF-stimulated, reference inhibitor-treated cell lysates. IC50 values were calculated by nonlinear regression analysis using a 4-parameter logistic curve fit in ActivityBase XL (IDBS).

The target of experiment [3] is KDR (Homo sapiens (Human), UniProt P35968). The experiment in a line: KDR autophosphorylation ELISA in HUVEC cells. As to conditions: cellular, VEGF165-stimulated, phospho-KDR ELISA. How it is done:
Human umbilical vein endothelial cells or HUVEC (Lonza #C2519A) were seeded at 2×10^4 cells/well onto 96-well plates (Corning #3904), in EGM-2 growth medium (Lonza #CC-3162) containing 1% Penicillin Streptomycin (Thermo Fisher #15140-122). HUVEC cells were incubated at 37° C., 5% CO2 for 24 h and then starved for 24 h in serum-free EBM-2 basal medium (Lonza #CC-3156) containing 1% Penicillin Streptomycin. Test compounds were serially diluted to produce an 8-point dose curve in fresh serum-free medium to a final concentration of 0.3% DMSO (vehicle) and added to the cells and incubated for 1 h. Cells were then stimulated with 100 ng/mL recombinant human VEGF165 (R&D Systems #293-VE-500) for 5 min, washed with cold PBS, and immediately lysed with 130 μL of cold 1× lysis buffer [20 mM Tris, 137 mM sodium chloride, 2 mM EDTA, 10% glycerol, 1% NP-40 alternative, 1 mM activated sodium orthovanadate, 1 mM PefaBloc SC (Sigma-Aldrich #11429868001), protease/phosphatase inhibitor tablet (Thermo Fisher #A32959)]. Lysates were collected and 100 μL/well added into the human phospho-KDR Duo Set IC ELISA (R&D Systems #DYC 1766-2). Assay was performed according to manufacturer's instructions and sample phospho-KDR concentrations were extrapolated using human phospho-KDR control (R&D Systems #841421) as a standard. Positive control wells (100% activity) contained VEGF165-stimulated, DMSO-treated cell lysates. Negative control wells (0% activity) contained non-stimulated cell lysates. IC50 values were calculated by nonlinear regression analysis using a 4-parameter logistic curve fit in ActivityBase XE (IDBS).

Sequence of KDR (P35968 20-1356): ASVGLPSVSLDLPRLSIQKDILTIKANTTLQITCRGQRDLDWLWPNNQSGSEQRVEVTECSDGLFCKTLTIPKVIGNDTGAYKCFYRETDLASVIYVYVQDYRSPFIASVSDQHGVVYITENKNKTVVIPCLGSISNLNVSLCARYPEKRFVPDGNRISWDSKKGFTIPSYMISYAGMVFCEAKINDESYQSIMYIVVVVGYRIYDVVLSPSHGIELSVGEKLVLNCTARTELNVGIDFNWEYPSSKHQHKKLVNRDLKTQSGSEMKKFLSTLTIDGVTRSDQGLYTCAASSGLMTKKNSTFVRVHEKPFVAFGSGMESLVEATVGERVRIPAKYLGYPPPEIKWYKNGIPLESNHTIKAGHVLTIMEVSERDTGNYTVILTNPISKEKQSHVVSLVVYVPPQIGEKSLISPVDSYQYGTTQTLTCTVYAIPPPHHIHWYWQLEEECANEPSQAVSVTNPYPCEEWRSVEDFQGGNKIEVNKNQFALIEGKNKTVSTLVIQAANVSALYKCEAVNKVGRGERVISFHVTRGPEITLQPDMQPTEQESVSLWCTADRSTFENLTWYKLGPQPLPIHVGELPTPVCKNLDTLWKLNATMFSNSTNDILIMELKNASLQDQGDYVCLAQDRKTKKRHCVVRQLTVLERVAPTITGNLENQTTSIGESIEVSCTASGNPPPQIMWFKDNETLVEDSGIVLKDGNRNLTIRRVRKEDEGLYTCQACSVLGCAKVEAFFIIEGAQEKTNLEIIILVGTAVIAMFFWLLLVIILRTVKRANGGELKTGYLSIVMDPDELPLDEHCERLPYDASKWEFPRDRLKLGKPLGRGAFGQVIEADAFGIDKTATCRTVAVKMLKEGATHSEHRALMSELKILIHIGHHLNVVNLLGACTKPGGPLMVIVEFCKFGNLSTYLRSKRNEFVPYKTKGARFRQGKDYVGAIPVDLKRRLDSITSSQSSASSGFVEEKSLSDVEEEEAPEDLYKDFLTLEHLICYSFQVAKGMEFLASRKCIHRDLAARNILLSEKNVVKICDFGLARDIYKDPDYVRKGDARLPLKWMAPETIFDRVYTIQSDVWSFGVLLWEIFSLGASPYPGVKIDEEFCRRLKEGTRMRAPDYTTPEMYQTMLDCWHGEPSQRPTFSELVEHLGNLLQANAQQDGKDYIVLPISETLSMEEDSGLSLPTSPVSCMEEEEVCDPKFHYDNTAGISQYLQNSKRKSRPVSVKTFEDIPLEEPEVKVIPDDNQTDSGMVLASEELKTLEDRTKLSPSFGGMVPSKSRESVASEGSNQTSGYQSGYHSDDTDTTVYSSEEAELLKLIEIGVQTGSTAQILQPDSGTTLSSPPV
Sequence of Met (P08581 25-1390): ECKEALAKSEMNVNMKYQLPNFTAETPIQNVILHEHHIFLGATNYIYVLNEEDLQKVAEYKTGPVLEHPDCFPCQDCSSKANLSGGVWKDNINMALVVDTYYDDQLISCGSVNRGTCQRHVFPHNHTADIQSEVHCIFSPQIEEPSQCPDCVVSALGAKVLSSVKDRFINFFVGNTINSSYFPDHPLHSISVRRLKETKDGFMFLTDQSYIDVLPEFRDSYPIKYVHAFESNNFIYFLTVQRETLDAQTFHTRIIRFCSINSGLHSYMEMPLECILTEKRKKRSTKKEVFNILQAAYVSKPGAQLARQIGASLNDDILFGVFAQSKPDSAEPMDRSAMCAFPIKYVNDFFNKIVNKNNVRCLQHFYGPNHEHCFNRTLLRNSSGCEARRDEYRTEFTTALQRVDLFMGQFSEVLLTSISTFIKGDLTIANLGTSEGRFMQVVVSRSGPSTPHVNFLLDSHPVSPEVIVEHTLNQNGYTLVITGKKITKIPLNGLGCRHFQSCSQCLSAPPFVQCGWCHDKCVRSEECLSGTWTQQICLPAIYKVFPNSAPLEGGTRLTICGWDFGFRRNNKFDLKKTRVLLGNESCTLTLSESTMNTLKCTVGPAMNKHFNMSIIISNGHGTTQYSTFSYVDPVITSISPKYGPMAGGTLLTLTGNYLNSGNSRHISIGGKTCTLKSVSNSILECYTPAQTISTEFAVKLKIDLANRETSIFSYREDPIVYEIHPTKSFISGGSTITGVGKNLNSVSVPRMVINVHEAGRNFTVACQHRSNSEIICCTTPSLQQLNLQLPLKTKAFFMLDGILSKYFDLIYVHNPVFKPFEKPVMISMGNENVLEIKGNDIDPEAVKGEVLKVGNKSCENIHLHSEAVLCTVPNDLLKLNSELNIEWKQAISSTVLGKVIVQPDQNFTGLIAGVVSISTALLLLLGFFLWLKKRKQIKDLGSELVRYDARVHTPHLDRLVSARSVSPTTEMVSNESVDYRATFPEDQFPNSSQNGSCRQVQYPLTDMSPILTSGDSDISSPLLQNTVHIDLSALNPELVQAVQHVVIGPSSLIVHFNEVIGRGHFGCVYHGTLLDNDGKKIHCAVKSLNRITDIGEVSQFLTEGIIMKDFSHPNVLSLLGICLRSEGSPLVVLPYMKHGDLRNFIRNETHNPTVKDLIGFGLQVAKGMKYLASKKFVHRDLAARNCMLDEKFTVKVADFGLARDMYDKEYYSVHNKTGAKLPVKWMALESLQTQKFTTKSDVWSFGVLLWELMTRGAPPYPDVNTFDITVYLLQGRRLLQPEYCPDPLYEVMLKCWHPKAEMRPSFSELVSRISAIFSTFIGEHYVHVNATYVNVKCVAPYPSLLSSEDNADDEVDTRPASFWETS
Sequence of AXL (P30530 26-894): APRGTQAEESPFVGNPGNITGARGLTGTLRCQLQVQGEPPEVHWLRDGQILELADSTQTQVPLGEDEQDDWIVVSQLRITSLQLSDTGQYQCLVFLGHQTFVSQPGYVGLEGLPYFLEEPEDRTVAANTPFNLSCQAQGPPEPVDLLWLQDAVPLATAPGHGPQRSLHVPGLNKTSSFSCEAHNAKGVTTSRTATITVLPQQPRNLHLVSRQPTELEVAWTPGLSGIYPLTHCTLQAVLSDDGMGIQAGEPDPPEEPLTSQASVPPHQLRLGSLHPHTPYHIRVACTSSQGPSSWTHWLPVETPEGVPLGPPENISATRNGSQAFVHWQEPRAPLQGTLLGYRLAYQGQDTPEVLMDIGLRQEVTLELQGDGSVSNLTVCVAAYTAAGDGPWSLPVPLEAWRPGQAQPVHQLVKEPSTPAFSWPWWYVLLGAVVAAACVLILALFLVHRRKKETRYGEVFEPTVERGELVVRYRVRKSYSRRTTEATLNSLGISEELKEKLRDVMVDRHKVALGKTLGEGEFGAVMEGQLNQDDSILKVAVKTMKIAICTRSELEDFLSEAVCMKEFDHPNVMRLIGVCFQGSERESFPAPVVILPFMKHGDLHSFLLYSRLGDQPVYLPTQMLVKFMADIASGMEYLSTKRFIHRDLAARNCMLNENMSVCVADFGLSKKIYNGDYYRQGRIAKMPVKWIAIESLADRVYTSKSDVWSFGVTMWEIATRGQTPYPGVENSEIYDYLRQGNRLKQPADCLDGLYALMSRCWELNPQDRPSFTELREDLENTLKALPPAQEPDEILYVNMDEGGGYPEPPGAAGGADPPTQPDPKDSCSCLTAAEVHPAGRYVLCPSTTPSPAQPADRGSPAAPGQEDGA

As a reminder, the IC50 is the concentration at which inhibition is half-maximal. Consider `COc1cc2ncnc(Oc3ccc(NC(=O)C4(C(=O)Nc5ccc(F)cc5)CC4)c(Cl)c3)c2nc1OC` [Compound 32, 1-N′-[2-chloro-4-(6,7-dimethoxypyrido[3,2-d]pyrimidin-4-yl)oxyphenyl]-1-N-(4-fluorophenyl)cyclo-propane-1,1-dicarboxamide], for which the IC50 in experiment [1] is 10 to 100 nM; in experiment [2], 100 to 300 nM; in experiment [3] it was 100 to 300 nM.
Turning to `COc1cc2ncnc(Oc3ccc(NC(=O)C4(C(=O)Nc5ccc(F)cc5)CC4)c(C)c3)c2nc1OC` [Compound 33, 1-N′-[4-(6,7-dimethoxypyrido[3,2-d]pyrimidin-4-yl)oxy-2-methylphenyl]-1-N-(4-fluorophenyl)cyclopropane-1,1-dicarboxamide], the figures for the IC50 in experiment [1], in experiment [2] and in experiment [3] were 100 to 300 nM, above 300 nM and 100 to 300 nM, respectively.
With `COc1cc(NC(=O)C2(C(=O)Nc3ccc(F)cc3)CC2)ccc1Oc1ncnc2cc(OCCCN3CCOCC3)c(OC)nc12` [Compound 74, 1-N-(4-fluorophenyl)-1-N′-[3-methoxy-4-[6-methoxy-7-(3-morpholin-4-ylpropoxy)pyrido[3,2-d]pyrimidin-4-yl]oxyphenyl]cyclopropane-1,1-dicarboxamide], the IC50 is 100 to 300 nM in experiment [1], above 300 nM in experiment [2] and 10 to 100 nM in experiment [3].
Taken in the same sequence, the figures for `COCCOc1cc2ncnc(Oc3ccc(NC(=O)C4(C(=O)Nc5ccc(F)cc5)CC4)cc3)c2nc1OC` [Compound 78, 1-N′-(4-fluorophenyl)-1-N-[4-[6-methoxy-7-(2-methoxyethoxy)pyrido[3,2-d]pyrimidin-4-yl]oxyphenyl]cyclopropane-1,1-dicarboxamide] were 10 to 100 nM, 100 to 300 nM and at most 10 nM.
On the same counts, the results for `Cn1cc(-c2ccc3ncnc(Oc4ccc(NC(=O)C5(C(=O)Nc6ccc(F)cc6)CC5)cc4)c3c2)cn1` [Compound 126, 1-N′-(4-fluorophenyl)-1-N-[4-[6-(1-methylpyrazol-4-yl)quinazolin-4-yl]oxyphenyl]cyclo-propane-1,1-dicarboxamide] are 100 to 300 nM, above 300 nM and above 300 nM.
On the same counts, the results for `COc1cc2nccc(Oc3cc(F)c(NC(=O)C4(C(=O)Nc5ccc(F)cc5)CC4)cc3F)c2nc1OC` [Compound 142, 1-N′-[4-[(6,7-dimethoxy-1,5-naphthyridin-4-yl)oxy]-2,5-difluorophenyl]-1-N-(4-fluorophenyl)cyclo-propane-1,1-dicarboxamide] are at most 10 nM, 10 to 100 nM and at most 10 nM.
Take `COCCOc1cc2nccc(Oc3cc(F)c(NC(=O)C4(C(=O)Nc5ccc(F)cc5)CC4)cc3F)c2nc1OC` [Compound 152, 1-N′-[2,5-difluoro-4-[[6-methoxy-7-(2-methoxy-ethoxy)-1,5-naphthyridin-4-yl]oxy]phenyl]-1-N-(4-fluoro-phenyl)cyclopropane-1,1-dicarboxamide]: the IC50 is at most 10 nM in experiment [1], 10 to 100 nM in experiment [2] and at most 10 nM in experiment [3].
As for `COc1nc2c(Oc3cc(F)c(NC(=O)C4(C(=O)Nc5ccc(F)cc5)CC4)cc3F)ccnc2cc1OCCN1CCOCC1` [Compound 153, 1-N′-[2,5-difluoro-4-[[6-methoxy-7-(2-morpholin-4-ylethoxy)-1,5-naphthyridin-4-yl]oxy]phenyl]-1-N-(4-fluorophenyl)cyclo-propane-1,1-dicarboxamide], the IC50 in experiment [1] is at most 10 nM; in experiment [2], 10 to 100 nM; in experiment [3], at most 10 nM.
Regarding `O=C(Nc1ccc(F)cc1)C1(C(=O)Nc2ccc(Oc3ccnc4cc5c(nc34)OCCO5)cc2)CC1` [Compound 157, 1-N-[4-(2,3-dihydro-[1,4]dioxino[2,3-b][1,5]naphthyridin-6-yloxy)phenyl]-1-N′-(4-fluorophenyl)cyclopropane-1,1-dicarboxamide], the IC50 in experiment [1], in experiment [2] and in experiment [3] was above 300 nM throughout.
As for `O=C(Nc1ccc(F)cc1)C1(C(=O)Nc2ccc(Oc3ccnc4cc5c(nc34)OCCO5)c(F)c2)CC1` [Compound 158, 1-N′-[4-(2,3-dihydro-[1,4]dioxino[2,3-b][1,5]naphthyridin-6-yloxy)-3-fluorophenyl]-1-N-(4-fluorophenyl)cyclo-propane-1,1-dicarboxamide], the IC50 in experiment [1], in experiment [2] and in experiment [3] was above 300 nM each time.
In the case of `O=C(Nc1ccc(F)cc1)C1(C(=O)Nc2ccc(Oc3ccnc4cc5c(nc34)OCCO5)c(Cl)c2)CC1` [Compound 159, 1-N′-[3-chloro-4-(2,3-dihydro-[1,4]dioxino[2,3-b][1,5]naphthyridin-6-yloxy)phenyl]-1-N-(4-fluorophenyl)cyclopropane-1,1-dicarboxamide], the values for the IC50 in experiment [1], in experiment [2] and in experiment [3] were above 300 nM, 100 to 300 nM and above 300 nM, respectively.
As to `COc1cc2nccc(Oc3ccc(NC(=O)C4(C(=O)Nc5ccc(F)cc5)CC4)cc3)c2nc1C#N` [Compound 164, 1-N-[4-[(6-cyano-7-methoxy-1,5-naphthyridin-4-yl)oxy]phenyl]-1-N′-(4-fluoro-phenyl)cyclopropane-1,1-dicarboxamide], the IC50 in experiment [1] is 100 to 300 nM; in experiment [2], above 300 nM; in experiment [3] it was 100 to 300 nM.
For the compound `COc1cc2nccc(Oc3ccc(NC(=O)C4(C(=O)Nc5ccc(F)cc5)CC4)cc3F)c2nc1C#N` [Compound 165, 1-N′-[4-[(6-cyano-7-methoxy-1,5-naphthyridin-4-yl)oxy]-3-fluorophenyl]-1-N-(4-fluorophenyl)cyclo-propane-1,1-dicarboxamide], the figures for the IC50 in experiment [1], in experiment [2] and in experiment [3] were 10 to 100 nM, 100 to 300 nM and 100 to 300 nM, respectively.
Turning to `COc1cc2nccc(Oc3ccc(NC(=O)C4(C(=O)Nc5ccc(F)cc5)CC4)cc3Cl)c2nc1C#N` [Compound 166, 1-N′-[3-chloro-4-[(6-cyano-7-methoxy-1,5-naphthyridin-4-yl)oxy]phenyl]-1-N-(4-fluorophenyl)cyclopropane-1,1-dicarboxamide], the IC50 was in the range of 100 to 300 nM in experiment [1], 100 to 300 nM in experiment [2] and 10 to 100 nM in experiment [3].
Consider `COc1cc2nccc(Oc3ccc(NC(=O)C4(C(=O)Nc5ccc(F)cc5)CC4)cc3)c2nc1C(N)=O` [Compound 167, 1-N-[4-[(6-carbamoyl-7-methoxy-1,5-naphthyridin-4-yl)oxy]phenyl]-1-N′-(4-fluorophenyl)cyclopropane-1,1-dicarboxamide], for which the IC50 in experiment [1] is 100 to 300 nM; in experiment [2], above 300 nM; in experiment [3], above 300 nM.
